Results: US8202885B2, “Bridged six-membered ring compounds” (Actelion Pharmaceuticals Ltd., priority 2007, dated 2012)

Columns and labels:
[1] = system: human Cav3.1 Cav3.2 or Cav3.3 channel; experiment: In vitro assay T channel (FLIPR calcium fluorescence); format: cell-based; settings: HEK293 cells expressing human Cav3.1, Cav3.2 or Cav3.3; 10 mM Ca2+-induced fluo-4 fluorescence; determined up to 10 μM; read-out: T channel antagonistic activity IC50
Summary of the method: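 IC50 (nM) is the antagonist concentration halving the area under the fluorescence peak evoked by 10 mM Ca2+, relative to vehicle, with testing up to 10 μM. Fluo-4-loaded HEK293 cells expressing each human Cav3 subtype received compound 3 min before Ca2+ addition (TEA-based buffer, pH 7.2); signal monitored 8 min at 2 s intervals.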

human Cav1.2 channel = target: T1, human Cav1.2 channel (Homo sapiens, UniProt Q13936); experiment: In vitro assay L channel (FLIPR calcium fluorescence); format: cell-based; settings: HEK293 cells expressing human Cav1.2 with β-2a and α2δ-1; 20 mM KCl-induced fluo-4 fluorescence; determined up to 10 μM; read-out: L channel antagonistic activity (IC50)
T1 construct: expressed in transfected cells; host or cells: HEK293
Experimental: The L channel antagonistic activity (IC50 values) of the compounds of formula (I) is determined in accordance with the following experimental method.
Human embryonic kidney (HEK293) cells expressing the human Cav1.2 channel in addition to the auxiliary subunits β-2a and α2δ-1, are grown in culture medium (DMEM containing 10% heat-inactivated fetal calf serum (FCS), 100 U/ml penicillin, 100 μg/ml streptomycin, 100 μg/ml G418, 40 μg/ml zeocin and 100 μg/ml hygromycin). The cells are seeded at 20.000 cells/well into 384-well black clear bottom sterile plates (poly-L-lysine-coated, Becton Dickinson). The seeded plates are incubated overnight at 37° C. in 5% CO2. The KCl solution is prepared as 80 mM stock solution in assay buffer (HBSS containing 0.1% BSA, 20 mM HEPES, 0.375 g/l NaHCO3, adjusted to pH 7.4 with NaOH) for use in the assay at a final concentration of 20 mM. Antagonists are prepared as 10 mM stock solutions in DMSO, then diluted in 384 w plates first in DMSO, then in assay buffer to obtain 3× stocks. On the day of the assay, 25 μl of staining buffer (HBSS containing 20 mM HEPES, 0.375 g/l NaHCO3, and 3 μM of the fluorescent calcium indicator fluo-4 AM (1 mM stock solution in DMSO, containing 10% pluronic) is added to each well of the seeded plate. The 384-well cell-plates are incubated for 60 min at 37° C. in 5% CO2 followed by washing with 2×50 μl per well using assay buffer leaving 50 μl/well of this buffer for equilibration at room temperature (30-60 min). Within the Fluorescent Imaging Plate Reader (FLIPR, Molecular Devices), antagonists are added to the plate in a volume of 25 μl/well, incubated for 3 min and finally 25 μl/well of KCl solution is added for cellular depolarization. Fluorescence is measured for each well at 2 second intervals for 8 minutes, and the area under the curve of each fluorescence peak is compared to the area of the fluorescence peak induced by 20 mM KCl with vehicle in place of antagonist. […]

isolated mouse hearts = experiment: Effect on isolated hearts according to the Langendorff method (Lgdff)
Experimental: Effect on Isolated Hearts According to the Langendorff Method (Lgdff)
The compounds were tested for their potential to reduce blood pressure and their effect on the contractility of the heart muscle. EC50 values on isolated mouse hearts were determined according to Literature (Doring H J., The isolated perfused heart according to Langendorff technique—function—application, Physiol. Bohemoslov. 1990, 39(6), 481-504; Kligfield P, Horner H, Brachfeld N., A model of graded ischemia in the isolated perfused rat heart, J. Appl. Physiol. 1976 June, 40(6), 1004-8).
51 example compounds have been measured using the procedure described above for the Langendorff experiment. The measured EC50 values were in the range of 4 to 669 nM with an average of 37 nM.

T1 sequence (Q13936 whole entry): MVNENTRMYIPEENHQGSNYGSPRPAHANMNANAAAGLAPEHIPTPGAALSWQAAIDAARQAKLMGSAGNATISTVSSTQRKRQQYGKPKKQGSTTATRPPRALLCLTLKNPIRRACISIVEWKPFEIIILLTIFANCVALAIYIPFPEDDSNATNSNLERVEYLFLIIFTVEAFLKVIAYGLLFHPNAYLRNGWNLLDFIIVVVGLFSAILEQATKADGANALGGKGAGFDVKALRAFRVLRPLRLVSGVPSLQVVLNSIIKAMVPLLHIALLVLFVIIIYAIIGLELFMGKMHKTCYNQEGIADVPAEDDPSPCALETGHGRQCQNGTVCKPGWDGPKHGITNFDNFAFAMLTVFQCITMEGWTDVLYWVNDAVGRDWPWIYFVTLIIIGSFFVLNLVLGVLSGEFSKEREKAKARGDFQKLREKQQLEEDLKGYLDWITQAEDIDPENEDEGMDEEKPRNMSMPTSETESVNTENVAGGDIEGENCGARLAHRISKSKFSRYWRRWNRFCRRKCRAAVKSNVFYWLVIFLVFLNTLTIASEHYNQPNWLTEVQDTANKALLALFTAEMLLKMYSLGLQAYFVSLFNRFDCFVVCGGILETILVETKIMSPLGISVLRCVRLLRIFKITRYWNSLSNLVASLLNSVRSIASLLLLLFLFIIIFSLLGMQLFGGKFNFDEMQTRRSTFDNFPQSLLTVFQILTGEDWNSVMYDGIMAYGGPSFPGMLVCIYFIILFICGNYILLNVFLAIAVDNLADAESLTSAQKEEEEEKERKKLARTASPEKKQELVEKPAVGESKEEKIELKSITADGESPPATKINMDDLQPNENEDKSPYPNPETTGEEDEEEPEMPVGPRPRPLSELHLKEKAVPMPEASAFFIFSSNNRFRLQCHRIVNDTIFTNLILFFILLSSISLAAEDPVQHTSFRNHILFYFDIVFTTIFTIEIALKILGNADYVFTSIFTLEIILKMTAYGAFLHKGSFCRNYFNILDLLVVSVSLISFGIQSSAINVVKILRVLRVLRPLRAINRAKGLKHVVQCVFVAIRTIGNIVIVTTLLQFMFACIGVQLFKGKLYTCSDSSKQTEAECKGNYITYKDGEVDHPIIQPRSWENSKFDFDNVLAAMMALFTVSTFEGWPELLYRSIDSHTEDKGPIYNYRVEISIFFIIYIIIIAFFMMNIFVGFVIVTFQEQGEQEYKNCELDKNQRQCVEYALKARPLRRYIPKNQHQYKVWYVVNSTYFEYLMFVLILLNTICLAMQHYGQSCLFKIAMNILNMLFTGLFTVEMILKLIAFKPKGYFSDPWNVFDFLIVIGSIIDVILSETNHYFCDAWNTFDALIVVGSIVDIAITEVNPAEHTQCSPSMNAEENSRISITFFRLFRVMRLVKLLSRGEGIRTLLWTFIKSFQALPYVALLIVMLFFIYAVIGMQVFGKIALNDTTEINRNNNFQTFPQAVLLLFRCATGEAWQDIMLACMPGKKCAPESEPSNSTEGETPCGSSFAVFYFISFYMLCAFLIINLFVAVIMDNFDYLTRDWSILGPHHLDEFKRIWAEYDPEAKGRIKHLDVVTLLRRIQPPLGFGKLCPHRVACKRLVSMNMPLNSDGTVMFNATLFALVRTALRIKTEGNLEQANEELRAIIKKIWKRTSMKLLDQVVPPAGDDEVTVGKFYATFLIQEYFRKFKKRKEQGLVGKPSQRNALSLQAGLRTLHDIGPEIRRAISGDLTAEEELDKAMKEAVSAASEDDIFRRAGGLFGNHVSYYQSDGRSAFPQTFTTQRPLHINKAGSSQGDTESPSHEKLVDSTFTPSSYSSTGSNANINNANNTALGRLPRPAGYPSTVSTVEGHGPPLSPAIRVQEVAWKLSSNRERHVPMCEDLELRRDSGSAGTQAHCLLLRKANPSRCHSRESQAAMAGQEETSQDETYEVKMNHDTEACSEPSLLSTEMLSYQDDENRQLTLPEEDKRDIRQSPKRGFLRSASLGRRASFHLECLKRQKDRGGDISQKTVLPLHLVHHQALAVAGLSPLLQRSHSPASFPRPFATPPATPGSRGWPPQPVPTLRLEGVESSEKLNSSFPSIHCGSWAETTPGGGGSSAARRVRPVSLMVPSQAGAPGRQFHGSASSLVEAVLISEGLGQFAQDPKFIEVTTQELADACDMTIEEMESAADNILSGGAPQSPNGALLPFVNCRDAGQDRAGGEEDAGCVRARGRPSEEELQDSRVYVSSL

## CC(C)C(=O)O[C@@]1(CCN(C)CCCc2nc3ccccc3[nH]2)C[C@H]2CC[C@@H]1C=C2c1ccc2ccccc2c1 (racemic) [Example 10A, rac-Isobutyric acid (1R*,2R*,4R*)-2-(2-{[3-(1H-benzoimidazol-2-yl)-propyl]-methyl-amino}-ethyl)-5-naphthalen-2-yl-bicyclo[2.2.2]oct-5-en-2-yl ester]
[1]
  IC50: > 10000 nM
Human Cav1.2 channel
  IC50: > 10000 nM
Isolated mouse hearts
  EC50: 13 nM

## CN(CCCc1nc2ccccc2[nH]1)CC[C@]1(O)C[C@H]2CC[C@@H]1C=C2c1ncco1 (racemic) [Example 25, rac-(1R*,2R*,4R*)-2-(2-{[3-(1H-Benzoimidazol-2-yl)-propyl]-methyl-amino}-ethyl)-5-oxazol-2-yl-bicyclo[2.2.2]oct-5-en-2-ol]
[1]
  IC50: > 10000 nM
Human Cav1.2 channel
  IC50: > 10000 nM

## COc1cccc2[nH]c(CCCN(C)CC[C@]3(OC(=O)CC(F)(F)F)C[C@H]4CC[C@@H]3C=C4c3ccccc3)nc12 (relative stereo) [Example 26C, rac-3,3,3-Trifluoro-propionic acid (1R*,2R*,4R*)-2-(2-{[3-(4-methoxy-1H-benzoimidazol-2-yl)-propyl]-methyl-amino}-ethyl)-5-phenyl-bicyclo[2.2.2]oct-5-en-2-yl ester]
[1]
  IC50: 4640 nM
Isolated mouse hearts
  EC50: 4 nM

## CC(C)C(=O)O[C@@]1(CCN(C)CCCc2cccnc2)C[C@H]2CC[C@@H]1C=C2c1ccccc1 (relative stereo) [Example 46A, rac-Isobutyric acid (1R*,2R*,4R*)-2-{2-[methyl-(3-pyridin-3-yl-propyl)-amino]-ethyl}-5-phenyl-bicyclo[2.2.2]oct-5-en-2-yl ester]
[1]
  IC50: 2560 nM
Isolated mouse hearts
  EC50: 9 nM

## CN(CCCc1nc2ccccc2[nH]1)CC[C@]1(O)C[C@@H]2C=C[C@H]1CC2 (racemic) [Example 75, rac-(1R*,2R*,4R*)-2-(2-{[3-(1H-Benzoimidazol-2-yl)-propyl]-methyl-amino}-ethyl)-bicyclo[2.2.2]oct-5-en-2-ol]
[1]
  IC50: > 10000 nM
Human Cav1.2 channel
  IC50: > 10000 nM

## COc1cccc(C2=C[C@H]3CC[C@@H]2C[C@]3(CCN(C)CCCc2nc3ccccc3[nH]2)OC(=O)C(C)C)c1 (relative stereo) [Example 2A, rac-Isobutyric acid (1R*,2R*,4R*)-2-(2-{[3-(1H-benzoimidazol-2-yl)-propyl]-methyl-amino}-ethyl)-5-(3-methoxy-phenyl)-bicyclo[2.2.2]oct-5-en-2-yl ester]
[1]
  IC50: 2310 nM
Isolated mouse hearts
  EC50: 15 nM

## CC(C)C(=O)O[C@@]1(CCN(C)CCCc2nc3ccccc3[nH]2)C[C@H]2CC[C@@H]1C=C2c1cccs1 (relative stereo) [Example 21A, rac-Isobutyric acid (1R*,2R*,4R*)-2-(2-{[3-(1H-benzoimidazol-2-yl)-propyl]-methyl-amino}-ethyl)-5-thiophen-2-yl-bicyclo[2.2.2]oct-5-en-2-yl ester]
[1]
  IC50: 2420 nM
Isolated mouse hearts
  EC50: 10 nM

## CC(C)C(=O)Oc1cccc2nc(CCCN(C)CC[C@]3(OC(=O)C(C)C)C[C@H]4CC[C@@H]3C=C4c3ccccc3)[nH]c12 (relative stereo) [Example 34A, rac-Isobutyric acid (1R*,2R*,4R*)-2-(2-{[3-(7-isobutyryloxy-1H-benzoimidazol-2-yl)-propyl]-methyl-amino}-ethyl)-5-phenyl-bicyclo[2.2.2]oct-5-en-2-yl ester]
[1]
  IC50: 4340 nM

## CC1=C(c2ccccc2)[C@H]2CC[C@@H]1C[C@]2(CCN(C)CCCc1nc2ccccc2[nH]1)OC(=O)C(C)C (relative stereo) [Example 17A, rac-Isobutyric acid (1R*,2R*,4R*)-2-(2-{[3-(1H-benzoimidazol-2-yl)-propyl]-methyl-amino}-ethyl)-5-methyl-6-phenyl-bicyclo[2.2.2]oct-5-en-2-yl ester]
[1]
  IC50: 1370 nM
Isolated mouse hearts
  EC50: 12 nM

## COc1ccc(OC)c2[nH]c(CCCN(C)CC[C@]3(OC(=O)C(C)C)C[C@H]4CC[C@@H]3C=C4c3ccccc3)nc12 (relative stereo) [Example 61A, rac-Isobutyric acid (1R*,2R*,4R*)-2-(2-{[3-(4,7-dimethoxy-1H-benzoimidazol-2-yl)-propyl]-methyl-amino}-ethyl)-5-phenyl-bicyclo[2.2.2]oct-5-en-2-yl ester]
[1]
  IC50: 571 nM
Isolated mouse hearts
  EC50: 5 nM

## CN(CCCc1nc2cc(Cl)c(Cl)cc2[nH]1)CC[C@]1(O)C[C@H]2CC[C@@H]1C=C2c1ccccc1 (relative stereo) [Example 27, rac-(1R*,2R*,4R*)-2-(2-{[3-(5,6-Dichloro-1H-benzoimidazol-2-yl)-propyl]-methyl-amino}-ethyl)-5-phenyl-bicyclo[2.2.2]oct-5-en-2-ol]
[1]
  IC50: > 10000 nM

## COc1cccc2nc(CCN(C)CC[C@]3(O)C[C@H]4CC[C@@H]3C=C4c3ccccc3)[nH]c12 (relative stereo) [Example 32, rac-(1R*,2R*,4R*)-2-(2-{[2-(7-Methoxy-1H-benzoimidazol-2-yl)-ethyl]-methyl-amino}-ethyl)-5-phenyl-bicyclo[2.2.2]oct-5-en-2-ol]
[1]
  IC50: 1480 nM

## COc1cccc2c1nc(CCCN(C)CC[C@]1(OC(=O)C(C)C)C[C@H]3CC[C@@H]1C=C3c1ccccc1)n2C (relative stereo) [Example 37A, rac-Isobutyric acid (1R*,2R*,4R*)-2-(2-{[3-(4-methoxy-1-methyl-1H-benzoimidazol-2-yl)-propyl]-methyl-amino}-ethyl)-5-phenyl-bicyclo[2.2.2]oct-5-en-2-yl ester]
[1]
  IC50: 935 nM

## COc1cccc2[nH]c(CCCN(C)CC[C@]3(OC(=O)C(C)C)C[C@H]4CCC[C@@H]3C=C4c3ccccc3)nc12 (relative stereo) [Example 36A, rac-Isobutyric acid (1R*,5R*,6R*)-6-(2-{[3-(4-methoxy-1H-benzoimidazol-2-yl)-propyl]-methyl-amino}-ethyl)-8-phenyl-bicyclo[3.2.2]non-8-en-6-yl ester]
[1]
  IC50: 1010 nM

## Cc1ccccc1C1=C[C@H]2CC[C@@H]1C[C@@]2(O)CCN(C)CCCc1nc2ccccc2[nH]1 (relative stereo) [Example 4, rac-(1R*,2R*,4R*)-2-(2-{[3-(1H-Benzoimidazol-2-yl)-propyl]-methyl-amino}-ethyl)-5-(2-methyl-phenyl)-bicyclo[2.2.2]oct-5-en-2-ol]
[1]
  IC50: 3610 nM

## CO[C@@]1(c2ccccc2)C[C@H]2CC[C@@H]1C[C@@]2(O)CCN(C)CCCc1nc2ccccc2[nH]1 (relative stereo) [Example 78, rac-(1R*,2R*,4R*,5S*)-2-(2-{[3-(1H-Benzoimidazol-2-yl)-propyl]-methyl-amino}-ethyl)-5-methoxy-5-phenyl-bicyclo[2.2.2]octan-2-ol]
[1]
  IC50: > 10000 nM
